The values below come from patent US20260041694A1, “Udonitrectag For Topical Use In The Treatment Of Dermatological Diseases” (MIMETECH S.R.L., priority 2022, published 2026).

One experiment deals with male C57BL/6 mice. Put plainly: In vivo model of androgenetic alopecia (DHT-injected mice). The following applies: Udonitrectag 100 μM in PBS, topical twice a day for 2 weeks; vs vehicle. On the procedure: Udonitrectag was studied in an in vivo model of androgenetic alopecia.
For this purpose, male C57BL/6 mice were shaved with an animal clipper at 8 weeks of age, when all follicles are in the telogen phase. After depilation, 4 mg of DHT (dissolved in 100 μL of ethanol) were injected subcutaneously into the back of each animal. The mice were then divided into two groups: vehicle-treated and treated with Udonitrectag 100 μM in PBS. Udonitrectag 100 μM solution, or vehicle (PBS only) were applied topically twice a day for 2 weeks and hair growth was recorded at the beginning and at the end of treatment.

Experiment [1] relates to human keratinocytes (HACAT cell line). Put plainly: In vitro wound healing model, scratched keratinocyte monolayer. Format: cell-based. As to conditions: 50 μM MT8, compared to control medium. On the procedure:
To evaluate whether MT8 is able to induce faster healing of injured human keratinocytes (HACAT cell line) monolayers, an in vitro “wound healing” model was used. HACAT cells were seeded in 6-well culture dishes and grown to 90%-95% confluency. A standardized wound was created by scratching the HACAT cell monolayer with a sterile micropipette tip under an inverted microscope. Then, the cells were washed with PBS and treated with 50 μM MT8 or 4 nM NGF, and images of the wound healing process were recorded at different time points.

Experiment [2] relates to psoriasis lesions on the calves of both legs. Put plainly: Treatment of psoriasis in a patient. As to conditions: one patient. Type of experiment: in vivo, human. The text has this: A patient diagnosed with psoriasis having lesions on the calves of both legs underwent the following treatment:
• FAGRON: galenic preparation (0.05% clobetasol propionate, 10% urea in occluvan q.s. to 100%)

For another experiment, the system named is skin lesions / wounds. In words: Topical treatment of skin lesions and wounds in patients (Examples 19-29). Format: in vivo, human. As to conditions: topical application.
The subject of experiment [3] is Human Umbilical Vein Endothelial Cells (HUVECs). In words: In vitro AGE-induced endothelial dysfunction, ATP content by CellTiter Glo. Format: cell-based. The following applies: 20 µM MT8; HUVECs on ECM-AGE-coated plates, 4 days. How it is done: BSA-AGE and ECM-AGE were produced by Maillard reaction and Amadori rearrangement and used to evaluate oxidative stress and apoptosis process induced by AGEs in endothelial cell cultures.
To evaluate whether MT8 is able to counteract AGE-induced endothelial cell dysfunction, Human Umbilical Vein Endothelial Cells (HUVECs) were seeded on ECM-AGE-coated plates and incubated with complete growth medium, in the presence or absence of 20 µM MT8, or 2 nM NGF+2 nM BDNF for 4 days. The cells were then lysed with 100 µL of CellTiter Glo, which allows for ATP release from the cells. The ATP content (directly proportional to cell viability) was measured by luciferase assay.

Text for skin lesions / wounds: Inoperable antibiotic multi-resistance. […] The jagged edges of the lesion are erythematous and infected. The periwound skin is erythematous and edematous, with erythema extending to the malleolar area. The lesion is lightly exuding, with foul-smelling, serous exudate. Contaminated/infected wound. When changing the dressing, the pain expressed is equal to 8 (VAS pain scale); there is still discomfort and sometimes pain even when the dressing is not changed. Complex wound due to comorbidities. • Treatment with Udonitrectag: Wound cleaning performed with sterile saline solution (0.9% sodium chloride) and Microdacyn, followed by Urgotul and finally 1% Udonitrectag gel-cream, covered with a light dressing; 2 dressing changes per week for a total of 5 dressings with 1% Udonitrectag gel-cream.

As to “(1S,4R,5R,7S)-3,4-dibenzyl-2-oxo-6,8-dioxa-3-azabicyclo[3.2.1]octane-7-carboxylic acid lysine salt [Udonitrectag]”, the hair regrowth result in the experiment with male C57BL/6 mice is “induces hair regrowth much faster and more intensively than vehicle treatment”. In experiment [1], the “wound repair process (wound distances as a function of time)” value is on record as “induces a faster repair process”. Further, in experiment [2] (left and right leg, both legs last treated with Udonitrectag 0.5% gel-cream), the “psoriasis status at skin examination two years after the end of the treatment” value is “completely healed”. For the same substance, in experiment [2] (topical, Udonitrectag as 0.5% gel-cream, regimen per leg over days 1-30), the “improvement of psoriatic lesions during treatment” value was “produced visible improvements in the lesions”. Besides, in the experiment on skin lesions / wounds, the “healing of skin lesions incurable with other treatments (FIGS. 6-16)” value is “healing of severe skin lesions”. Moreover, in experiment [3], the “endothelial cell viability (ATP content)” value is listed as “able to maintain endothelial cell viability”.
